Experimental data reported in patent publication US20160030364A1, “Therapeutic Compositions and Uses Thereof” (MANUKA HEALTH NEW ZEALAND LIMITED, priority 2013, published 2016).

Key:
Assay type in all cases: cell-based
[1] = system: human colorectal adenocarcinoma cells (DLD-1); assay: MTT proliferation assay, DLD-1 (Examples 1-2); details: Example 2, DLD-1, sample 200 μg/mL, 24 hours incubation; for inhibition at 200 µg/mL: Homo sapiens
Experimental: (§1) Test samples shown below in Table 2 were assessed for their ability to modulate the viability and proliferation of human colorectal adenocarcinoma cells (DLD-1) as assessed by the MTT assay. A positive control, 5-fluorouracil (5-FU) was included in addition to an unsupplemented cell control (negative control) in the study. The test samples were obtained by fractionation of propolis tincture.
as §1, with “study.” for “study. The test samples were obtained by fractionation of propolis tincture.”
Human colorectal adenocarcinoma epithelial cell lines were revived from cryostorage and cultured in the presence of the test and reference samples. The culture conditions for the cells were those described by the supplier of the cells (ATCC). An MTT assay was then performed on the cultures to determine the effect of the samples on the cell proliferation.
Working solutions were prepared by dissolving the test fractions in 15% ethanol (ETOH)/HBSS to a concentration of 2 mg/mL solids.
• 1. Human colorectal adenocarcinoma cells (ATCC CCI-221, DLD-1). • 2. Penicillin-streptomycin solution: 10000 units/mL penicillin, 10 mg/mL streptomycin in 0.9% NaCl (Sigma Cat #P-0781). Stored at −20° C. • 3. DMEM culture medium (Invitrogen Cat #12100-046) Stored at −20° C. • 4. Trypsin-EDTA solution: 0.25% Trypsin/EDTA, Invitrogen Cat#15400054 (×10 in stock). • 5. Phosphate buffered saline (PBS) (Prepared by TBL). • 6. Hanks Balanced Salt Solution (HBSS). (GIBCO Cat No. 14185-052). Stored at 4° C. • 7. Foetal Bovine Serum (GIBCO Cat #10091-148). Stored at −20° C. • 8. MTT Reagent: 100 mg/vial, (SIGMA Cat. No. M-2128) dissolved in PBS at 10 mg/mL and stored at −20° C. 5 mg/mL MTT solution were prepared in PBS and stored at 4° C. as working solution. • 9. MTT lysis buffer: 10% sodium dodecyl sulphate (SDS)/45% Dimethyl Formamide (20 g SDS was dissolved in 100 mL of double-distilled water (DDW), and 90 mL of Dimethyl Formamide added to the SDS solution). The pH was adjusted to 4.7 by glacial acetic acid, and DDW added up to a final volume of 200 mL. • 10. 5-Fluorouracil (5-FU), (Sigma Cat. No. F-6627). Two working solutions were prepared at 150 ng/mL and 75 ng/mL, dissolved in 15% Ethanol/HBSS. Final concentrations were 7.50 ng/mL and 3.75 ng/mL.
The medium for the propagation of the colorectal adenocarcinoma (DLD-1) cells was DMEM, supplemented with penicillin-streptomycin solution (10 mL per litre). FBS was added just before use to give 10% w/v.
• 1. The human colorectal adenocarcinoma cells (DLD-1) obtained from the American Type Culture Collection USA were revived from cryostorage. • 2. Following initial propagation using the media described above (see Medium Preparation), the culture was subcultured using the trypsin-EDTA as follows. The media was removed and 5 mL of the trypsin-EDTA solution added and incubated at 37° C. for 5 min or until all the cells had detached. The trypsin was neutralised by adding an equal volume of DMEM medium and the culture centrifuged at 300 g (1200 rpm) for 5 min at 4° C. • 3. The supernatant was decanted and the cell pellets resuspended in medium DMEM, FBS (10%), penicillin (100 units/mL), streptomycin (100 μg/mL). The cells were cultured at 37° C. in 5% CO2/95% air. • 4. After reaching confluence, the cells were detached using trypsin-EDTA and centrifuged as described in 2 above. • 5. The supernatants were discarded and the cells resuspended in DMEM and supplements as described in 3 above at 1.0×10^4 cells per mL. • 6. Into each well of three 96 well plates, 180 μl of the cells (1,800 cells/well) or medium was added. The plates were incubated at 5% CO2/95% air at 37° C. for 48 h which was sufficient to allow the cells to adhere. • 7. To each well, 20 μl of each, of the test samples or positive control was added. […]

[2] = system: human gastric carcinoma cell line (NCI-N87); assay: MTT anti-proliferative assay, NCI-N87 (Examples 3-12); details: 200 μg/ml; for % inhibition / % stim. / Mean OD (570 nm): 48 hours; for inhibition at 200 µg/mL: Homo sapiens, NCI-N87, 48 h
Experimental: (§2) 5-phenylpenta-2,4-dienoic acid was assessed for its ability to modulate the viability and proliferation of human colorectal adenocarcinoma cells (DLD-1); human colon cancer cell line (HCT-116); human gastric carcinoma cell line (NCI-N87); and human oesophageal squamous cell carcinoma cell line (KYSE-30) as assessed by the MTT assay. The positive control, 5-fluorouracil (5-FU) was included at three concentrations; in addition to an unsupplemented cell control as a negative control in the study. The 5-phenylpenta-2,4-dienoic acid was a genuine standard with chemical structure confirmed by NMR and MS.
(§3) The four human gastrointestinal carcinoma cell lines were revived from cryostorage and cultured in the presence of the test and reference samples. An MTT assay was then performed on the cultures to determine the effect of the samples on the cell viability and proliferation.
(§4) The test sample 5-phenylpenta-2,4-dienoic acid, and all other test samples in Examples 4-12 (except tectochrysln) were Initially dissolved in pure ethanol to a concentration of around 13.35 mg/ml. Tectochrysin was initially dissolved in triethylene glycol mono-methyl ether to the same concentration. Working solutions were then prepared from the stock solutions by dilution to 15% ethanol/Hanks Balanced Salt Solution (ETOH)/HBSS to a concentration of 2 mg/mL solids. In the assay the final concentration of the samples was 200 μg/ml with a final EtOH concentration of 1.5%. Final concentrations of test compounds and propolis prepared as above are as noted in Example 3.
(§5) • 1. Human colorectal adenocarcinoma cells (ATCC CCI-221, DLD-1)(ATCC, Bethesda, Md., USA) • 2. Human gastric carcinoma cells (ATCC CRL-5822, NCI-N87)(ATCC, Bethesda, Md., USA) • 3. Human oesophageal squamous cell carcinoma (ECACC, KYSE-30)(Sigma Aldrich, Auckland, NZ) • 4. Human colon carcinoma cells (ECACC HCT-116)(Sigma Aldrich, Auckland, NZ) • 5. Penicillin-streptomycin solution: 10000 units/ml penicillin, 10 mg/ml streptomycin in 0.9% NaCl (Sigma Cat #P-0781). Stored at −20° C. • 6. For DLD-1 cells: DMEM culture medium (Invitrogen Cat #12100-046). Stored at 4° C. • 7. For NCI-N87 cells: RPMI-1640 medium modified to contain 2 mM L-glutamine, 10 mM HEPES, 1 mM sodium pyruvate, 4500 mg/L glucose, and 1500 mg/L sodium bicarbonate (Sigma R6504). Stored at 4° C. • 8. For KYSE-410 cells: RPMI-1640 medium modified to contain 2 mM L-glutamine (Sigma R6504). Stored at 4° C. • 9. For HCT-116 cells: McCoy's 5A medium modified to contain 2 mM L-glutamine (Sigma M48792). Stored at 4° C. • 10. Trypsin-EDTA solution: 0.25% Trypsin/EDTA, Invitrogen Cat#15400054 (×10 in stock). • 11. Phosphate buffered saline (PBS) (Prepared by TBL). • 12. Hanks Balanced Salt Solution (HBSS). (GIBCO Cat No. 14185-052). Stored at 4° C. • 13. Foetal Bovine Serum (GIBCO Cat #10091-148). Stored at −20° C. • 14. MTT Reagent: 100 mg/vial, (SIGMA Cat. No. M-2128) dissolved in PBS at 10 mg/ml and stored at −20° C. 5 mg/ml MTT solution will be prepared in PBS and stored at 4° C. as working solution. • 15. MTT lysis buffer: 10% sodium dodecyl sulphate (SDS)/45% Dimethyl Formamide (20 g SDS will be dissolved in 100 ml of double-distilled water (DDW), and 90 ml of Dimethyl Formamide will be added to the SDS solution). The pH will be adjusted to 4.7 by glacial acetic acid, and DDW added up to a final volume of 200 ml. • 16. 5-Fluorouracil (5-FU), (Sigma Cat. No. F-6627). Three working solutions will be prepared at 19.5 μg/ml. 6.5 μg/ml and 1.95 μg/ml dissolved in 15% Ethanol/HBSS. Final concentrations will be 1.95 μg/ml (15 μM), 0.65 μg/ml (5 μM) and 0.195 μg/ml (1.5 μM).
(§6) The medium for the propagation of the each of the cells lines is given above. Each medium was prepared following the ATCC/ECACC instructions and supplemented with penicillin-streptomycin solution (10 ml per litre). FBS (at 10%) was added just before use.
• 1. […]

[3] = system: human oesophageal squamous cell carcinoma cell line (KYSE-30); assay: MTT anti-proliferative assay, KYSE-30 (Examples 3-13); details: Examples 3-12, 200 μg/ml, 48 hours; for inhibition at 200 µg/mL: Homo sapiens, KYSE-30, 48 h
Experimental: as §2, §3, §4, §5, §6
• 1. […]

[4] = system: human colon cancer cell line (HCT-116); assay: MTT anti-proliferative assay, HCT-116 (Examples 3-12); details: 200 μg/ml; for % inhibition / % stim. / Mean OD (570 nm): 48 hours; for inhibition at 200 µg/mL: Homo sapiens, HCT-116, 48 h
Experimental: as §2, §3, §4, §5, §6
• 1. […]

[5] = system: human colorectal adenocarcinoma cells (DLD-1); assay: MTT anti-proliferative assay, DLD-1 (Examples 3-12); details: 200 μg/ml; for % inhibition / % stim. / Mean OD (570 nm): 48 hours; for inhibition at 200 µg/mL: Homo sapiens, DLD-1, 48 h
Experimental: as §2, §3, §4, §5, §6
• 1. […]

[6] = listed as Pinobanksin 3-O-acetate

Compound | Mean OD (570 nm) [1] | % stim. [2] [%] | Mean OD (570 nm) [2] | % inhibition [3] [%] | % stim. [3] [%] | Mean OD (570 nm) [3] | % inhibition [4] [%] | % stim. [4] [%] | Mean OD (570 nm) [4] | % stim. [5] [%] | Mean OD (570 nm) [5] | inhibition at 200 µg/mL [1] [%] | other results
COc1cc(O)c2c(c1)OC(c1ccccc1)CC2=O (stereo not shown) [Pinocembrin 7-methyl ether] | 0.3151 |  |  |  |  |  |  |  |  |  |  |  | % inhibition [1]: 2.71%; % inhibition ([1]; listed as #38 Pinocembrin 7-methyl ether): 2.7%
COc1ccc(/C=C/C(=O)OCc2ccccc2)cc1O [benzyl isoferulate] |  | 0 | 0.0885 | 95.82 | 0 | 0.0251 | 94.81 | 0 | 0.0264 | 0 | 0.0379 |  | % inhibition [2]: 79.95%; inhibition at 200 µg/mL [2]: 80%; inhibition at 200 µg/mL [3]: 95.8%; inhibition at 200 µg/mL [4]: 94.8%; % inhibition [5]: 90.81%; inhibition at 200 µg/mL [5]: 90.8%
O=C(O)/C=C/c1ccc(O)c(O)c1 [Caffeic acid] | 0.0113 |  |  |  |  |  |  |  |  |  |  | 96.5 | 
O=c1cc(-c2ccccc2)oc2cc(O)cc(O)c12 [Chrysin] |  |  |  |  |  |  |  |  |  |  |  | 61.9 | 
CC(=O)O[C@H]1C(=O)c2c(O)cc(O)cc2O[C@@H]1c1ccccc1 [pinobanksin 3-O-acetate, pinobanksin-3-acetate] |  | 0 | 0.2287 | 68.01 | 0 |  | 90.61 | 0 | 0.0477 | 0 |  |  | % inhibition [2]: 48.22%; % inhibition [2, 6]: 48.2%; % inhibition [3, 6]: 68.0%; % inhibition [4, 6]: 90.6%; % inhibition [5, 6]: 75.4%
O=C(/C=C/c1ccc(O)c(O)c1)OCCc1ccccc1 [CAPE, Caffeic acid phenethyl ester] |  |  |  |  |  |  |  |  |  |  |  | 76 | 
O=C(O)C=CC=Cc1ccccc1 [5-phenylpenta-2,4-dienoic acid] |  | 0 | 0.2537 | 37.55 | 0 | 0.3758 | 36.43 | 0 | 0.3232 | 0 | 0.2329 |  | inhibition at 200 µg/mL [2]: 42.6%; inhibition at 200 µg/mL [3]: 37.6%; inhibition at 200 µg/mL [4]: 36.4%; inhibition at 200 µg/mL [5]: 43.5%
COc1cc(O)c(C(=O)/C=C/c2ccccc2)c(O)c1 [pinostrobin chalcone] |  | 5.5 | 0.4659 | 45.0 | 0 | 0.3312 | 51.2 | 0 | 0.2482 | 0 | 0.069 |  | % inhibition [5]: 83.3%
O=c1c(O)c(-c2ccccc2)oc2cc(O)cc(O)c12 [Galangin] |  |  |  |  |  |  |  |  |  |  |  | 56.5 | 
O=C(O)/C=C/c1ccccc1 [Trans-Cinnamic acid] | 0.2390 |  |  |  |  |  |  |  |  |  |  | 26.2 | 
